Measured values published in patent publication US12576107B2, “Methods of treating chronic inflammatory diseases” (METIMEDI PHARMACEUTICALS CO., LTD., priority 2018, dated 2026).

Legend:
lactate dehydrogenase A = test: Human endothelial cell in vitro experiment, Western blot in HUVEC; type: cell-based; details: 2.5 mM, human umbilical vein endothelial cells
Description: Human Umbilical Vein Endothelial cell line, HUVEC, was purchased from American Type Culture Collection (Manassas, VA, USA). The HUVEC cells were Endothelial Cell Growth Medium 2 maintained in Endothelial Cell Growth Medium 2 Supplement MIX (PromoCell, Heidelberg, Germany)
To prepare whole cell lysate, cells were lysed with lysis buffer (1% NP-40, 0.25% sodium deoxycholate, 150 mM NaCl, 1 mM EDTA, 1% Triton X-100, 50 mM Tris-HCl (pH 7.4), 10% Glycerol) with protease inhibitor cocktail (Roche, Basel, Switzerland) and phosphatase inhibitors (NA3VO4 1 mM, NaF 100 mM). Then, protein concentration was measured using the Bicinchoninic acid (BCA) assay kit (Thermo Scientific, Waltham, MA). Whole cell or nuclear lysates were transferred onto polyvinylidene fluoride membranes (Merck Millipore, Billerica, MA, USA). After blocking in 5% non-fat milk (Bio-Rad, Hercules, CA, USA) for 1 h, the membranes were incubated overnight at 4° C. with primary antibody diluted in TBST containing 100 mM Tris-HCl (pH 7.5), 1.5 M NaCl, and 0.5% Tween-20 obtained from Sigma-Aldrich, to which 5% BSA and 0.1% sodium azide (Sigma-Aldrich) had been added. Specific primary antibodies to HIF-1α (1:1000), HIF-2α (1:1000), LDH-A (1:1000), LDH-B (1:1000), TLR-4 (1:1000), NF-κB (1:1000), VEGF (1:1000), α-tubulin (1:1000), Actin (1:1000), and GAPDH (1:5000). […]

nuclear factor-kappa B = test: Immunocytochemistry of nuclear factor-kappa B in ARPE-19 cells; type: cell-based, Human; details: 2.5 mM, hypoxia
Description: (§1) Human retinal pigment epithelium cell line, ARPE-19, was purchased from American Type Culture Collection (Manassas, VA, USA). The ARPE-19 cells were maintained in RPMI1640 containing 10% fetal bovine serum (Life Technologies, Gaithersburg, MD, USA), 100 IU/ml penicillin, and 100 μg/ml streptomycin (Welgene, Daegu, South Korea).
(§2) ARPE-19 and SK-N-SH cells were fixed on bio-coated coverslips (BD bioscience, San Jose, CA, USA) by 4% PFA for 20 min and then incubated with the primary antibodies for 15 h. The primary antibodies were as follows: HIF-1a (1:300, BD Biosciences, San Jose, CA, USA); LDH-A (1:300, Santa Cruz Biotechnology, Santa Cruz, CA, USA); LDH-B (1:300, Santa Cruz Biotechnology, Santa Cruz, CA, USA); NF-κB (1:300, Santa Cruz Biotechnology, Santa Cruz, CA, USA); TLR-4 (1:300, Santa Cruz Biotechnology, Santa Cruz, CA, USA); apoE (1:200, Santa Cruz Biotechnology, Santa Cruz, CA, USA). After PBS wash, the cells were incubated with anti-mouse secondary biotinylated antibody (1:2000, Vector Laboratorie, Burlingame, CA, USA) and visualized with streptavidin conjugated to Fluorescein (Vector Laboratorie, Burlingame, CA, USA). […] Confocal fluorescence images were obtained with confocal laser scanning microscopy (LSCM, Nikon A1+, Tokyo, Japan) under a 60× oil immersion lens.

Apolipoprotein E = test: Immunocytochemistry of drusen marker Apolipoprotein E in ARPE-19 cells; type: cell-based, Human; details: 2.5 mM, hypoxia
Description: as §1, §2

[1] = test system: High cholesterol diet supplied ApoE-deficient mice (Atherosclerosis); test: Vascular disease (atherosclerosis) model, high fat diet ApoE-deficient mice; type: in vivo, BALB/c ApoE^shi mice
Description: Animals. […] Fibe-week old male BALB/c ApoE^shi mice were obtained from Japan SLC Inc. (Shizuoka, Japan) and bred under specific-pathogen-free (SPF) conditions. All animals were maintained in a 12-hour light/dark cycle at 22-25° C. with free access to food and water.
Calcium lactate was purchased from Sigma Aldrich (St. Louis, MO, USA).
Animal model for vascular disease. BALB/c ApoE^shi species is used for spontaneous induction of vascular disease. In this investigation, a high fat (40%) diet was provided for 4 weeks to induce strong atherosclerosis.
Histological analysis. The thoracic aorta was transected, and a half of the aorta was fixed in 10% neutral buffer formalin fixative solution. Then, histological analysis was performed. Histological analysis was performed with H&E and Oil red O staining. Aortic wall thickness, atherosclerotic plaque areas, foam cell numbers, and lipidated regions were analyzed.
Statistical analysis. Statistical analysis was performed using SPSS statistics, and the results were analyzed using Student t-test. Histologic analysis was performed using the Mann-Whitney method. P<0.05 was considered statistically significant.

[2] = test system: LPS-induced periodontal disease rats; test: Periodontal disease model, intragingival injection of LPS; type: in vivo, Sprague-Dawley (SD) rats; details: 2 mg/kg daily subcutaneous 21 days
Description: Animals. […] Eight-week old male Sprague-Dawley (SD) rats were obtained from Samtako Co. (Osan, Gyeonggi-do, Republic of Korea) and bred under specific-pathogen-free (SPF) conditions. All animals were maintained in a 12-hour light/dark cycle at 22-25° C. with free access to food and water.
Dissolve 1 mg of LPS powder in 100 μl of saline. Keep the tubes on ice if LPS is going to be used fresh. For long storage, use screw cap vials are preferred. The aliquots were stored in a deep freezer (−20° C.). Calcium lactate was purchased from Sigma Aldrich (St. Louis, MO, USA).
Animal model for periodontal disease. Periodontal disease was induced by intragingival injection of LPS (1 mg/100 μl) in sterile saline. A fine hypodermic needle was inserted at the mesiolateral aspect of the first right mandibular molar and the tip moved distally so that the injection was made at the interdental papilla between the first and second molars. The injection was slowly made, and the needle held in place for 10 seconds post injection to ensure that the LPS was not lost through the needle track.
Histological analysis. […] Mount with mounting medium.

[3] = 2 mg/kg daily subcutaneous, male ApoE-deficient mice, mean ± S.E.M.
[4] = male ApoE-deficient mice, n = 8, mean ± S.E.M.

**Q.** With `CC(O)C(=O)[O-].CC(O)C(=O)[O-].[Ca+2]` (stereo not drawn) [calcium lactate] as the compound, how does the “hypoxia-mediated factors (lactate dehydrogenase A), Western blot” value (lactate dehydrogenase A) read?
**A.** decreased

**Q.** And the “inflammatory factor (nuclear factor-kappa B), immunocytochemistry” value (nuclear factor-kappa B)?
**A.** decreased

**Q.** And the “drusen marker (Apolipoprotein E), immunocytochemistry” value (Apolipoprotein E)?
**A.** decreased

**Q.** And the “ATHEROSCLEROTIC PLAQUE AREAS” value [1, 3]?
**A.** 0.10 ± 0.03^++ mm^2

**Q.** And the “FOAM CELL NUMBERS” value [1, 3]?
**A.** 39.00 ± 10.13^+ cells/mm^2

**Q.** What about the “LIPID DEPOSITED REGIONS” value [1, 3] of the same compound?
**A.** 0.09 ± 0.03^++ mm^2

**Q.** And the “MEAN AORTA WALL THICKNESS” value [1, 3]?
**A.** 85.83 ± 8.70^+ μm

**Q.** What about the “atherosclerotic lesions of aorta (H&E, oil red O)” value ([1]; ApoE-deficient mice) of the same compound?
**A.** decreased

**Q.** And the “pathogenic factors cholesterol (TCHO), LDL cholesterol (LDL), triglycerides (TG), HDL-cholesterol (HDL)” value ([1]; ApoE-deficient mice, blood)?
**A.** not controlled

**Q.** What about the “HDL (clinical blood biochemistry)” value [1, 4] of the same compound?
**A.** 197.2 ± 3.7 mg/dL

**Q.** And the “LDL (clinical blood biochemistry)” value [1, 4]?
**A.** 1537.1 ± 14.2 mg/dL

**Q.** And the “TCHO (clinical blood biochemistry)” value [1, 4]?
**A.** 2328.0 ± 56.7 mg/dL

**Q.** And the “TG (clinical blood biochemistry)” value [1, 4]?
**A.** 54.8 ± 2.8 mg/dL

**Q.** What about the “ligaments and gingiva around the root of tooth (Masson's trichrome)” value [2] of the same compound?
**A.** recovered

**Q.** And the “morphology of the upper gum (Masson's trichrome)” value [2]?
**A.** recovered
